Earlier results, collected in EP0707853B1, “Muscle relaxant pharmaceutical compositions” (priority 1994, dated 1996).

Conditions: for pI: isoionic point; for pI / pKa: Handbook of Chemistry and Physics, ed. 69, page C 107; for pKa: pKa values for basic groups; for isoionic point (pI): value given in the example text as the pH the solution is brought to

Row | SMILES | pI | pKa | isoionic point (pI)
1 | C[C@H](N)C(=O)O [alanine] | 6,1 | 9,87 | –
2 | NCC(=O)O [glycine] | 6,06 | – | 6.1
3 | O=C(O)[C@@H]1C[C@@H](O)CN1 [hydroxyproline] | 5,82 | 9,73 | –
4 | CSCC[C@H](N)C(=O)O [methionine] | 5,91 | 10,6 | –
5 | O=C(O)[C@@H]1CCCN1 [proline] | 6,3 | 9,87 | –
6 | N[C@@H](CO)C(=O)O [serine] | 5,68 | 9,15 | 5.67
7 | CC(C)[C@H](N)C(=O)O [valine] | 6,0 | 9,72 | –
